What was measured:
Keap1/Nrf2 [1] = biological target: T1, Keap1/Nrf2 (Homo sapiens, UniProt Q14145); experiment: Inhibition of Keap1-Nrf2 protein-protein interaction (unknown origin) by fluorescence polarization assay
Keap1/Nrf2 [2] = biological target: T1, Keap1/Nrf2; experiment: (§1) Inhibition of Keap1-Nrf2 protein-protein interaction (unknown origin) assessed as inhibition constant by TR-FRET assay
Keap1/Nrf2 [3] = biological target: T1, Keap1/Nrf2; experiment: Inhibition of Keap1-Nrf2 protein-protein interaction (unknown origin) assessed as inhibition constant by fluorescence polarization assay
Keap1/Nrf2 [4] = biological target: T1, Keap1/Nrf2; experiment: Inhibition of Keap1-Nrf2 protein-protein interaction (unknown origin) by TR-FRET assay
Keap1/Nrf2 [5] = biological target: T2, Keap1/Nrf2 (Homo sapiens, UniProt Q16236+Q14145); experiment: Inhibition of Keap1-Nrf2 protein-protein interaction in human NCM460D cells assessed as fold induction at 1 to 100 uM in NQO1 mRNA level incubated for 24 hrs by RT-qPCR analysis; assay type: cell-based; settings: dose 1-100 µM
Target sequence in this assay (Q14145 whole entry, looked up): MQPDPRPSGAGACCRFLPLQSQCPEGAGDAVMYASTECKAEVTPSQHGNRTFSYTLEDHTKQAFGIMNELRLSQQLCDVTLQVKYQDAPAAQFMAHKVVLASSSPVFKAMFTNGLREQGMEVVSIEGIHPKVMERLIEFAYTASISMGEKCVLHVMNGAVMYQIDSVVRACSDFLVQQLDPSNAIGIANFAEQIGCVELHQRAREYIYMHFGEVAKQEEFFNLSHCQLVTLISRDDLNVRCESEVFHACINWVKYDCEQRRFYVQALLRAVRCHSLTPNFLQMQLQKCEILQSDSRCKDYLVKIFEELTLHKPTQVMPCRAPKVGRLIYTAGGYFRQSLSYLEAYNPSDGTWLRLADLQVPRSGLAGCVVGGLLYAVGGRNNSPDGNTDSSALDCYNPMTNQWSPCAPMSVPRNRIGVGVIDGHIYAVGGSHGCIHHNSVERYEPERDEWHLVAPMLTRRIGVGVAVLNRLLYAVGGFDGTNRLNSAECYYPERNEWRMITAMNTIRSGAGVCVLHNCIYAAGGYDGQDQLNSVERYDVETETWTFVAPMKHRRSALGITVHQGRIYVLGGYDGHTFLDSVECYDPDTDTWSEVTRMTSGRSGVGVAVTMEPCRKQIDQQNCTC
Target sequence in this assay (Q16236 whole entry, looked up): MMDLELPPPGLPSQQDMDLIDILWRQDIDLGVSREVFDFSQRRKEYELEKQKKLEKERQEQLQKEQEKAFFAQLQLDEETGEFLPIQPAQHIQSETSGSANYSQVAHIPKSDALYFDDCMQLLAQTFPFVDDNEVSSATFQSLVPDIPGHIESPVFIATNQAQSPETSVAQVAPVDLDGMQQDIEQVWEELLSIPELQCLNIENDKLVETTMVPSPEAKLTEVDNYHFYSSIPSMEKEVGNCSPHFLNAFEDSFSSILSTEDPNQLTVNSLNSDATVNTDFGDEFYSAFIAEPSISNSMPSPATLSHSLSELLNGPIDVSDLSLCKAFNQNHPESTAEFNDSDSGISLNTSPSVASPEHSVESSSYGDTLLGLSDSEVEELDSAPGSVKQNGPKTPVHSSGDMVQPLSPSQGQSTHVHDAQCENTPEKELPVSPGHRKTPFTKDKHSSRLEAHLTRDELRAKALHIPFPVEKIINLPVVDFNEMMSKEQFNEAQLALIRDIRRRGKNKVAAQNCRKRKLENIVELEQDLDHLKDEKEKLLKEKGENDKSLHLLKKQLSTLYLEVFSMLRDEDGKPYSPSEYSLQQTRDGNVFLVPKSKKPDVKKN

Keap1/Nrf2 [6] = biological target: T2, Keap1/Nrf2; experiment: as §1
Target sequence in this assay (Q16236 whole entry): as the sequence (Q16236 whole entry, looked up) above
Target sequence in this assay (Q14145 whole entry): as the sequence (Q14145 whole entry, looked up) above

T1 sequence (Q16236 whole entry): as the sequence (Q16236 whole entry, looked up) above
T1 sequence (Q14145 whole entry): as the sequence (Q14145 whole entry, looked up) above

Structure (SMILES)	IC50 (Keap1/Nrf2 [1]) [nM]	Ki (Keap1/Nrf2 [2]) [nM]	Ki (Keap1/Nrf2 [3]) [nM]	further results
COc1ccc(S(=O)(=O)N(CC(=O)O)c2ccc(N(CC(=O)O)S(=O)(=O)c3ccc(OC)cc3)c(OCCN3CCOCC3)c2)cc1	2500	500		
Cc1ccc(S(=O)(=O)N(CC(=O)O)c2ccc(N(CC(=O)O)S(=O)(=O)c3ccc(C)cc3)c(OCc3ccc(F)cc3)c2)cc1			76.3	
Cc1ccc(S(=O)(=O)N(CC(=O)O)c2ccc(N(CC(=O)O)S(=O)(=O)c3ccc(C)cc3)c(O[C@@H](C)C(=O)O)c2)cc1	136	32.2	11.6	IC50 (Keap1/Nrf2 [4]): 72.2 nM
COc1ccc(S(=O)(=O)N(CC(=O)O)c2ccc(N(CC(=O)O)S(=O)(=O)c3ccc(OC)cc3)c(OCC(=O)c3ccccc3)c2)cc1	593	106		
COc1ccc(S(=O)(=O)N(CC(=O)O)c2ccc(N(CC(=O)O)S(=O)(=O)c3ccc(OC)cc3)c(OCC(=O)N3CCN(C)CC3)c2)cc1	2260	452		
COc1ccc(S(=O)(=O)N(CC(=O)O)c2ccc(N(CC(=O)O)S(=O)(=O)c3ccc(OC)cc3)c(C(=O)OCc3ccccc3)c2)cc1	1610	316		
COc1ccc(S(=O)(=O)N(CC(=O)O)c2ccc(N(CC(=O)O)S(=O)(=O)c3ccc(OC)cc3)c(OCC(=O)N3CCC(c4ccccc4)CC3)c2)cc1	760	141		
COc1ccc(S(=O)(=O)N(CC(=O)O)c2ccc(N(CC(=O)O)S(=O)(=O)c3ccc(OC)cc3)c(OS(=O)(=O)Cc3ccccc3)c2)cc1		82		
COc1ccc(S(=O)(=O)N(CC(=O)O)c2ccc(N(CC(=O)O)S(=O)(=O)c3ccc(OC)cc3)c(OC(=O)c3ccccc3)c2)cc1	1780	351		
COc1ccc(S(=O)(=O)N(CC(=O)O)c2ccc(N(CC(=O)O)S(=O)(=O)c3ccc(OC)cc3)c(C(=O)Oc3ccccc3)c2)cc1	3850	780		
COc1ccc(S(=O)(=O)N(CC(=O)O)c2ccc(N(CC(=O)O)S(=O)(=O)c3ccc(OC)cc3)c(OS(=O)(=O)c3ccc(-c4ccccc4)cc3)c2)cc1		78.3		
Cc1ccc(S(=O)(=O)N(CC(=O)O)c2ccc(N(CC(=O)O)S(=O)(=O)c3ccc(C)cc3)c(OCc3nnn[nH]3)c2)cc1	408		68	
Cc1ccc(S(=O)(=O)N(CC(=O)O)c2ccc(N(CC(=O)O)S(=O)(=O)c3ccc(C)cc3)c(OS(=O)(=O)c3c(C)cc(C)cc3C)c2)cc1	407		67.6	
COc1ccc(S(=O)(=O)N(CC(=O)O)c2ccc(N(CC(=O)O)S(=O)(=O)c3ccc(OC)cc3)c(OS(=O)(=O)c3ccccc3)c2)cc1	439	74.2		
Cc1ccc(S(=O)(=O)N(CC(=O)O)c2ccc(N(CC(=O)O)S(=O)(=O)c3ccc(C)cc3)c(NCC(=O)O)c2)cc1	1780		351	
COc1ccc(S(=O)(=O)N(CC(=O)O)c2ccc(N(CC(=O)O)S(=O)(=O)c3ccc(OC)cc3)c(OS(=O)(=O)c3c(C)cc(C)cc3C)c2)cc1		50.7		
COc1ccc(S(=O)(=O)N(CC(=O)O)c2ccc(N(CC(=O)O)S(=O)(=O)c3ccc(OC)cc3)c(OCC(=O)Nc3ccccc3)c2)cc1	7680	1570		
Cc1ccc(S(=O)(=O)N(CC(=O)O)c2cc(CCC(=O)O)c(N(CC(=O)O)S(=O)(=O)c3ccc(C)cc3)c3ccccc23)cc1	69.3	9.1	~1	FC (Keap1/Nrf2 [5]): 8; IC50 (Keap1/Nrf2 [4]): 22.3 nM
Cc1ccc(S(=O)(=O)N(CC(=O)O)c2cc(OCC(=O)O)c(N(CC(=O)O)S(=O)(=O)c3ccc(C)cc3)c3ccccc23)cc1				FC (Keap1/Nrf2 [5]): 15
Cc1ccc(S(=O)(=O)N(CC(=O)O)c2ccc(N(CC(=O)O)S(=O)(=O)c3ccc(C)cc3)c(CCC(=O)O)c2)cc1	565		100	
COc1ccc(S(=O)(=O)N(CC(=O)O)c2ccc(N(CC(=O)O)S(=O)(=O)c3ccc(OC)cc3)c(OCC(=O)N3CCOCC3)c2)cc1	399	66.1		
Cc1ccc(S(=O)(=O)N(CC(=O)O)c2ccc(N(CC(=O)O)S(=O)(=O)c3ccc(C)cc3)c(OCC(=O)N3CCOCC3)c2)cc1	641		116	
Cc1ccc(S(=O)(=O)N(CC(=O)O)c2ccc(N(CC(=O)O)S(=O)(=O)c3ccc(C)cc3)c(OCCN3C(=O)c4ccccc4C3=O)c2)cc1	228		30.6	
Cc1ccc(S(=O)(=O)N(CC(=O)O)c2ccc(N(CC(=O)O)S(=O)(=O)c3ccc(C)cc3)c(O[C@H](C)C(=O)O)c2)cc1				Ki (Keap1/Nrf2 [6]): 41.4 nM

Reference: ChEMBL document CHEMBL5528026, “Structural modification of C2-substituents on 1,4-bis(arylsulfonamido)benzene or naphthalene-N,N'-diacetic acid derivatives as potent inhibitors of the Keap1-Nrf2 protein-protein interaction” (Eur J Med Chem, 2024)
